Assays:
cervical vagus nerve = assay: Whole nerve electrophysiology of the cervical vagus during duodenal sugar perfusion; format: in vivo, mice; details: wild-type mice; sucrose 300 mM, D-glucose 150 mM, fructose 150 mM, galactose 150 mM, maltodextrin 8%, α-MGP 150 mM, sucralose 15 mM, acesulfame K 15 mM, saccharin 15 mM
Method: FIG. 1. […] Model: sugars are perfused into the duodenal lumen while nerve activity is recorded from the cervical vagus of anesthetized wild-type mice.
The proximal duodenum was perfused with sugars, thus bypassing any gustatory or gastric activation. Sugars were tested based on the following properties: both caloric content and sweet taste (sucrose [300 mM], D-glucose [150 mM], […], galactose [150 mM]), calorie-only (maltodextrin [8%], alpha-methylglucopyranoside (α-MGP) [150 mM]), or taste-only (sucralose [15 mM], acesulfame-K [15 mM], saccharin [15 mM]) (FIG. 1, FIG. 2, FIG. 3, FIG. 4).

Cck_tdTomato+ cells = assay: Calcium activity of cultured Cck_tdTomato+ cells stimulated with sugars; format: cell-based, mice; details: D-glucose 20 mM, sucralose 2 mM, maltodextrin 1%; 49 cells
Method: Dissociated vagal neurons were cultured to test whether the neurons are able to sense the different sugars. The neurons were stimulated with three consecutive sugars (D-glucose [20 mM], sucralose [2 mM], and maltodextrin [1%]) followed by KCI [50 mM] as an activity control. […] To determine how individual neuropod cells respond to taste and calorie properties, cultured Cck_tdTomato+ cells were stimulated with the same sugars, counterbalancing for order effect, and calcium activity was recorded using KCI [50 mM] as a final activity control. Of the 49 cells imaged, 18.4% responded to all types of sugar, 36.7% responded to only D-glucose, 20.4% to only maltodextrin, and 12.2% to only sucralose (n = 49 cells, n = 3 mice; FIG. 13). […] Cck_tdTomato+ cells were co-cultured with nodose neurons to determine whether neuropod cells were transducing different sugar stimuli onto the same vagal neurons. Patch-clamp electrophysiology, in voltage-clamp, was used to record neuron activity in response to neuropod cell exposure to D-glucose [20 mM] and sucralose [2 mM] in alternating order (FIG. 14). From the 18 pairs recorded, neuropod cells transduced the sugar stimuli and elicited excitatory post-synaptic currents in connected neurons in response to both stimuli in 6 pairs, to only D-glucose in 8 pairs, and to sucralose alone in 4 pairs (FIG. 14). […]

duodenal Cck cells = assay: Vagal recording with intraluminal 532 nm laser silencing of duodenal Cck (neuropod) cells; format: in vivo; details: Cck_Halo mice; sucrose 300 mM, α-mgp 150 mM, sucralose 15 mM
Method: FIG. 9. Model: intraluminal 532 nm laser activates NpH3 chloride channels to silence duodenal Cck cells in CckCRE_NpH3 mice.
Using whole nerve electrophysiology of the cervical vagus nerve, it was confirmed that vagal activity increases in the presence of luminal sugars. Kaelberer et al., Science 361 (6408) (2018). The proximal duodenum was perfused with sugars, thus bypassing any gustatory or gastric activation. Sugars were tested based on the following properties: both caloric content and sweet taste (sucrose [300 mM], D-glucose [150 mM], fructose [150 mM], galactose [150 mM]), calorie-only (maltodextrin [8%], alpha-methylglucopyranoside (α-MGP) [150 mM]), or taste-only (sucralose [15 mM], acesulfame-K [15 mM], saccharin [15 mM]) (FIG. 1, FIG. 2, FIG. 3, FIG. 4). […] Intraluminal application of the 532 nm laser eliminated the vagal response to sucrose [300 mM], α-mgp [150 mM], and sucralose [15 mM] (n ≥ 5, p < 0.001) (FIG. 10 and FIG. 11; laser activation and wild-type controls). Thus, neuropod cells are required to sense both the calorie and taste properties of sugar and communicate these signals onto vagal neurons.
Cck neuropod cells in the duodenum express receptors for fatty acids (FIG. 69), analyzed by bulk sequencing Cck-positive and Cck-negative epithelial cells in the duodenum of CckGFP mice. Thus, CCK cells in the duodenum may signal the presence of fatty acids to the vagus nerve. To test this, the silencing optogenetic channel was expressed in Cck cells of mice. […] In the duodenum, there is overlap in cells expressing CCK and the vesicular glutamate transporter 1 (Vglut1), required for release of the neurotransmitter glutamate. To test whether glutamate is required as a signaling molecule for fat transduction to the vagus nerve, a cocktail of glutamate receptor inhibitors was perfused through the duodenum of wild type mice. Blockade of ionotropic and metabotropic glutamate receptors blocked vagal firing elicited by glutamate (FIG. 71). […] In an initial baseline test, mice freely explore an arena for 20 minutes, during which their position in the arena measured. […]

[1] = tested on: murine small intestinal organoids; assay: Glutamate release assay on murine small intestinal organoids; format: cell-based, mouse; details: sucrose 300 mM, α-MGP 150 mM, sucralose 15 mM; PBS control 2.632 ± 1.280
Method: Slc5a1+ Cck-GFP cells express transcripts for the vesicular glutamate transporters Slc17a6, Slc17a7, Slc17a8 and the excitatory neurotransmitter transporters Slc1a1, Slc1a2, and Slc1a3 (FIG. 4). […] A glutamate release assay was performed on murine small intestinal organoids to determine if glutamate release was stimuli specific (FIG. 24-left). α-MGP was used for a caloric stimulus with no sweet taste, because it is not metabolized once it enters the cell and thus allowed for isolation of cell entry. After nutrient stimulation, the glutamate concentration in the supernatant was 2.632 ± 1.280 ng/µL for PBS control, 13.460 ± 1.724 ng/µL for sucrose [300 mM], 18.183 ± 7.904 ng/µL for α-MGP [150 mM], and 6.053 ± 1.169 ng/µL for sucralose [15 mM].

vagal nodose neurons = assay: Cultured dissociated vagal neurons stimulated with sugars; format: cell-based; details: D-glucose 20 mM; for response of vagal nodose neurons cultured alone: sucralose 2 mM, maltodextrin 1%, n = 59 neurons
Method: (§1) Dissociated vagal neurons were cultured to test whether the neurons are able to sense the different sugars. The neurons were stimulated with three consecutive sugars (D-glucose [20 mM], sucralose [2 mM], and maltodextrin [1%]) followed by KCI [50 mM] as an activity control. […] To determine how individual neuropod cells respond to taste and calorie properties, cultured Cck_tdTomato+ cells were stimulated with the same sugars, counterbalancing for order effect, and calcium activity was recorded using KCI [50 mM] as a final activity control. Of the 49 cells imaged, 18.4% responded to all types of sugar, 36.7% responded to only D-glucose, 20.4% to only maltodextrin, and 12.2% to only sucralose (n = 49 cells, n = 3 mice; FIG. 13). […] Cck_tdTomato+ cells were co-cultured with nodose neurons to determine whether neuropod cells were transducing different sugar stimuli onto the same vagal neurons. Patch-clamp electrophysiology, in voltage-clamp, was used to record neuron activity in response to neuropod cell exposure to D-glucose [20 mM] and sucralose [2 mM] in alternating order (FIG. 14). From the 18 pairs recorded, neuropod cells transduced the sugar stimuli and elicited excitatory post-synaptic currents in connected neurons in response to both stimuli in 6 pairs, to only D-glucose in 8 pairs, and to sucralose alone in 4 pairs (FIG. 14). Thus, neuropod cells are heterogenous in their response and transduction of caloric and non-caloric stimuli to vagal neurons.

[2] = tested on: nodose neurons co-cultured with Cck_tdTomato+ cells; assay: Patch-clamp electrophysiology of nodose neurons co-cultured with Cck_tdTomato+ cells; format: cell-based; details: D-glucose 20 mM, sucralose 2 mM; for peak excitatory post-synaptic currents, D-glucose vs sucralose: n = 18 pairs; for co-culture pairs responding to this stimulus only / co-culture pairs with excitatory post-synaptic currents in response to only this stimulus: of 18 pairs
Method: as §1

[3] = tested on: enteroendocrine cells and nodose ganglia neurons; details: 10 mM glucose; cited from earlier work

SMILES | vagal response (firing) to intraduodenal sugar vs baseline (cervical vagus nerve) | cells responding to only this sugar (Cck_tdTomato+ cells) [%] | vagal response with Cck cells silenced by 532 nm laser (duodenal Cck cells) | glutamate concentration in the supernatant after stimulation [1] [ng/µL] | response of vagal nodose neurons cultured alone (vagal nodose neurons) | peak excitatory post-synaptic currents, D-glucose vs sucralose [2] | co-culture pairs responding to this stimulus only [2] [%] | co-culture pairs with excitatory post-synaptic currents in response to only this stimulus [2] [pairs] | neurons with a (small) response (vagal nodose neurons; 59 neurons) | activation of a nodose neuron by itself [3] | response of connected neuron to stimulus applied to the enteroendocrine cell [3]
OC[C@H]1O[C@H](O[C@]2(CCl)O[C@H](CCl)[C@@H](O)[C@@H]2O)[C@H](O)[C@@H](O)[C@H]1Cl [sucralose] | responds significantly | 12.2 | eliminated | 6.053 ± 1.169 | do not respond | not significantly different | 22.2 | 4 |  |  | 
O=C[C@H](O)[C@@H](O)[C@H](O)[C@H](O)CO [D-glucose] | responds significantly | 36.7 |  |  | do not respond | not significantly different | 44.4 | 8 | 2 of 59 | did not activate | induced excitatory post-synaptic potentials and action potential spikes

From patent US20230077514A1, “METHODS FOR MODULATING CALORIE CONSUMPTION” (Duke University, priority 2020, published 2023)
